# Columns and labels:
# [1] = biological target: recombinant human GSK3α (Homo sapiens, UniProt P49840); assay: In vitro enzymatic assay for inhibition of GSK3α (Kinase-Glo Max luminescence); format: biochemical; settings: 10 uM ATP, 0.1 mg/ml GSKtide, 30° C. for 40 minutes; read-out: Potency GSK-3alpha
# Procedure: (§1) Enzymatic activities using recombinant human GSK3 using an in vitro enzymatic assay for inhibition GSK3α and GSK3β.
# (§2) The assay was performed using Kinase-Glo Max luminescence kinase assay kit (Promega). It measures kinase activity by quantitating the amount of ATP remaining in solution following a kinase reaction. The luminescent signal from the assay is correlated with the amount of ATP present and is inversely correlated with the amount of kinase activity. The compounds were diluted in 10% DMSO and 5 μl of the dilution was added to a 50 μl reaction so that the final concentration of DMSO is 1% in all of reactions. The enzymatic reactions were conducted at 30° C. for 40 minutes. The 50 μl reaction mixture contains 40 mM Tris, pH 7.4, 10 mM MgCl2, 0.1 mg/ml BSA, 2 mM DTT, 0.1 mg/ml GSKtide substrate, 10 uM ATP and GSK3. After the enzymatic reaction, 50 μl of Kinase-Glo Max Luminescence kinase assay solution (Promega) was added to each reaction and incubate the plate for 15 minutes at room temperature. Luminescence signal was measured using a BioTek Synergy 2 microplate reader.
# (§3) Kinase activity assays were performed in duplicate at each concentration. The luminescence data were analyzed using the computer software, Graphpad Prism. The difference between luminescence intensities in the absence of Kinase (Lut) and in the presence of Kinase (Luc) was defined as 100% activity (Lut−Luc). […]
# [2] = system: Wnt signaling pathway, TCF/LEF reporter-HEK293 Recombinant cell lines; assay: Wnt signaling pathway activation in HEK293 cells (TCF/LEF reporter, luciferase); format: cell-based; settings: Homo sapiens, incubated overnight, read-out: Potency
# Procedure: Assay: Wnt Signaling Pathway Activation in HEK293 Cells. Materials:
# TCF/LEF reporter-HEK293 Recombinant cell lines
# One-Step Luciferase Assay System
# The assay was performed using TCF/LEF reporter-HEK293 Recombinant cell lines
# Plate 32,000 TCF/LEF reporter-HEK293 Recombinant cells/well in a 96-well plate (volume=90 μL). The compounds were diluted in the thawing medium 1 containing 1% DMSO, and add 10 μL to each well (0.1% DMSO at final). The cells were incubated for overnight at 37° C. in 5% CO2 followed by adding 100 μL of One-Step Luciferase Assay System to each well. Plate was incubated for 30 min at room temperature in a darkroom.
# Luminescence signal was measured using a BioTek Synergy 2 microplate reader.
# Wnt signaling pathway activation assays were performed in triplicates at each concentration. The luminescence data were analyzed using the computer software, Graphpad Prism. The luminescence intensity in the absence of Compounds (Luc) was defined the minimum activity and the signal in the presence of the highest concentration of the Compound was defined as the maximum activity. Signal from the wells containing medium only was defined as background. […]
# [3] = biological target: recombinant human GSK3β (Homo sapiens, UniProt P49841); assay: In vitro enzymatic assay for inhibition of GSK3β (Kinase-Glo Max luminescence); format: biochemical; settings: 10 uM ATP, 0.1 mg/ml GSKtide, 30° C. for 40 minutes; read-out: Potency GSK-3beta
# recombinant human GSK3β, sequence (P49841 whole entry): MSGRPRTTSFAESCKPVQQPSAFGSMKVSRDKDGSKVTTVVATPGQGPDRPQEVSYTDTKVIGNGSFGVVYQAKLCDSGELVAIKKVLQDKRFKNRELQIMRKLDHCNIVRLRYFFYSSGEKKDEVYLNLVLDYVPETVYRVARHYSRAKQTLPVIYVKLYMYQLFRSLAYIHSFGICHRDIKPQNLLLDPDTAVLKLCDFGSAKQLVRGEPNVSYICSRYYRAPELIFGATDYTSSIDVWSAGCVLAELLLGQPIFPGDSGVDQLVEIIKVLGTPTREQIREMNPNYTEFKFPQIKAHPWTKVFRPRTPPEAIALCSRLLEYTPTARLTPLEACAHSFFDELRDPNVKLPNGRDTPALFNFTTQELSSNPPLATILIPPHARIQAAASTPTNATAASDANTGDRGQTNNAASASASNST
# Procedure: as §1, §2, §3
# [4] = system: Lgr5-positive cells; assay: Expansion of Lgr5-positive cochlear cells from Lgr5-EGFP-IRES-Cre-ER mice (flow cytometry for Lgr5-GFP); format: cell-based, mouse; settings: 10 days (D10) in culture; for Potency: Lgr5-positive cell expansion; for % of Cells: percentage of GFP-positive (Lgr5-GFP) cells
# Procedure: Lgr5-EGFP-IRES-Cre-ER mice (Barker et al., 2007) (http://jaxmice.jax.org/strain/008875.html) are used to analyze the effects of small molecules on cochlear stem cell expansion.
# Isolation of stem cells from the inner ear: All animal studies are conducted under an approved institutional protocol according to National Institutes of Health guidelines. For experiments with neonatal mice (postnatal days 1-3), the cochleae are dissected in HBSS and the organ of Corti are separated from the stria vascularis and the modiolus. The organs of Corti are then treated with Cell Recovery Solution (Corning) for 1 h to separate cochlear epithelium from the underlying mesenchyme. Epithelia are then collected and treated with TrypLE (Life Technologies) for 15-20 minutes at 37° C. Single cells obtained by mechanical trituration are filtered (40 μm) and suspended in Matrigel (Corning) for 3D culture.
# Cells are cultured in a 1:1 mixture of DMEM and F12, supplemented with Glutamax (GIBCO), N2, B27 (Invitrogen), EGF (50 ng/ml; Chemicon), bFGF (50 ng/ml; Chemicon), IGF1 (50 ng/ml; Chemicon) and the composition provided herein. Media are changed every other day.
# Lgr5-positive cells are quantified after 10 days (D10) in culture in multiple conditions. Cell colonies are dissociated into single cells using TrypLE (Gibco). The cells are then stained with propidium iodide (PI) and are analyzed using a flow cytometer for Lgr5-GFP expression. The number of GFP-positive cells and the percentage of GFP-positive cells are quantified.
# Atoh1-nGFP-positive cells are quantified at day 0 (D0) and day 10 (D10) of differentiation treatment to determine the number of hair cells that have differentiated. Cell colonies are incubated in Cell Recovery Solution to release the colonies from Matrigel and dissociated into single cells using TrypLE. The total number and percentage of GFP-positive cells are quantified using a flow cytometer for multiple culture conditions. ANOVA is used to compare means across conditions, and the two-tailed Student's T-test is used to compare each condition to the treatment with the highest yield.
# recombinant human GSK3α, sequence (P49840 whole entry): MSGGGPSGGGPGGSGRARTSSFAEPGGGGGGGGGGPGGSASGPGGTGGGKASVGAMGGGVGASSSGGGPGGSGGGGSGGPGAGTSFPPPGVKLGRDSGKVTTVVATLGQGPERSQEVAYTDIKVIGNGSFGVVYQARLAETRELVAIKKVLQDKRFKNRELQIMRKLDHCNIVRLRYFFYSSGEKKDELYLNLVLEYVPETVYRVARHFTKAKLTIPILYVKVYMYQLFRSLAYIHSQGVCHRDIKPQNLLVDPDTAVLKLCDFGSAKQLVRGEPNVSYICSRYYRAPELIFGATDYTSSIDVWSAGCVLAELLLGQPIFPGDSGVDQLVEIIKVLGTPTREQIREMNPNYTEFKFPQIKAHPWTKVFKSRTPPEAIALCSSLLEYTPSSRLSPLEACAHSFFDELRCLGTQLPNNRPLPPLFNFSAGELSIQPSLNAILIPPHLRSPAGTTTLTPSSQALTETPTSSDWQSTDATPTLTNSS
IC50 [1] [nM],IC50 [3] [nM],SMILES,EC50 [2] [nM],Potency [4] [nM],% of Cells [4] [%]
15.6,22,O=C1NCC(c2cn3c4c(cc(F)cc24)CN(C(=O)N2CCCCC2)CC3)=C1c1cnc2ccccn12 [Compound I-4],60,333.3,8.3
8.2,8.3,O=C1NCC(c2cnc3ccccn23)=C1c1cn2c3c(cc(F)cc13)CN(C(=O)N1CCCCC1)CC2 [Compound I-49],< 10,333.3,5.5

# Reference: US10383881B2, “1,5-dihydro-2H-pyrrol-2-one compounds and methods of using same” (Frequency Therapeutics, Inc., priority 2016, dated 2019)
